Values joined by “and” are separate entries in the source; they are usually repeats but may differ in a detail not shown here. Equal values may be shown once. Toxic doses and inconclusive results are not listed. Cut-off read from the data, not from the text of the source: active = T/C of 150% or more; inactive = T/C below 125%.
Tested on: L1210 leukemia ip in BDF1 mice, survival T/C
Test: NCI In Vivo Anticancer Drug Screen. Data for tumor model L1210 Leukemia (intraperitoneal) in B6D2F1 (BDF1) mice
Conditions: endpoint: mean survival time, higher = longer survival
In short: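 Mice bearing the transplanted tumor received compound or vehicle. Survival of the treated group was divided by that of the vehicle-treated control group to give the ratio.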

[1] = dose: 100.0 mg/kg/injection, schedule: Q01DX009 (ip), vehicle: Klucel (hydroxypropylcellulose) (HPC)
[2] = dose: 200.0 mg/kg/injection, schedule: Q01DX009 (ip), vehicle: Klucel (hydroxypropylcellulose) (HPC)
[3] = dose: 400.0 mg/kg/injection, schedule: Q01DX009 (ip), vehicle: Klucel (hydroxypropylcellulose) (HPC)
[4] = dose: 100.0 mg/kg/injection, schedule: Q04DX003 (ip), vehicle: Klucel (hydroxypropylcellulose) (HPC)
[5] = dose: 200.0 mg/kg/injection, schedule: Q04DX003 (ip), vehicle: Klucel (hydroxypropylcellulose) (HPC)
[6] = dose: 400.0 mg/kg/injection, schedule: Q04DX003 (ip), vehicle: Klucel (hydroxypropylcellulose) (HPC)
[7] = dose: 200.0 mg/kg/injection, schedule: Q04DX002 (ip), vehicle: saline with Tween-80
[8] = dose: 400.0 mg/kg/injection, schedule: Q04DX002 (ip), vehicle: saline with Tween-80
[9] = dose: 100.0 mg/kg/injection, schedule: Q01DX001 (ip), vehicle: carboxymethylcellulose (CMC)

Measured: T/C

Cc1ncn(C)n1
inactive: dose: 100.0 mg/kg/injection, schedule: Q04DX002 (ip), vehicle: saline 94 % of control | dose: 200.0 mg/kg/injection, schedule: Q04DX002 (ip), vehicle: saline 112 % of control | dose: 400.0 mg/kg/injection, schedule: Q04DX002 (ip), vehicle: saline 98 % of control

CC(=O)Nc1ccc(NC(=O)Nc2ccccc2F)cc1
inactive: [1] 98 % of control | [2] 96 % of control | [3] 102 % of control

CCCCCCCCCCCCSC1CC(=O)N(c2ccccc2)C1=O (stereo not given)
inactive: dose: 37.5 mg/kg/injection, schedule: Q04DX003 (ip), vehicle: other 99 % of control and 109 % of control | dose: 50.0 mg/kg/injection, schedule: Q01DX001 (ip), vehicle: other 98 % of control and 101 % of control and 104 % of control | dose: 75.0 mg/kg/injection, schedule: Q04DX003 (ip), vehicle: other 86 % of control and 89 % of control | dose: 100.0 mg/kg/injection, schedule: Q04DX002 (ip), vehicle: other 95 % of control and 89 % of control | dose: 100.0 mg/kg/injection, schedule: Q04DX003 (ip), vehicle: other 103 % of control | dose: 150.0 mg/kg/injection, schedule: Q04DX003 (ip), vehicle: other 86 % of control and 88 % of control | dose: 200.0 mg/kg/injection, schedule: Q04DX002 (ip), vehicle: other 89 % of control and 92 % of control | dose: 200.0 mg/kg/injection, schedule: Q04DX003 (ip), vehicle: other 97 % of control | dose: 400.0 mg/kg/injection, schedule: Q04DX002 (ip), vehicle: other 96 % of control and 89 % of control | dose: 400.0 mg/kg/injection, schedule: Q04DX003 (ip), vehicle: other 94 % of control

COc1ccc2c(c1)C(=O)C1CC3(CCC21)OCCO3 (stereo not given)
inactive: [1] 101 % of control | [4] 109 % of control | [2] 97 % of control | [5] 93 % of control | [3] 95 % of control | [6] 100 % of control

CCOC(C)=N
inactive: dose: 50.0 mg/kg/injection, schedule: Q01DX001 (ip), vehicle: saline 100 % of control | dose: 50.0 mg/kg/injection, schedule: Q01DX008 (ip), vehicle: saline 102 % of control | dose: 100.0 mg/kg/injection, schedule: Q01DX001 (ip), vehicle: saline 89 % of control and 97 % of control | dose: 100.0 mg/kg/injection, schedule: Q01DX008 (ip), vehicle: saline 112 % of control | dose: 100.0 mg/kg/injection, schedule: Q04DX003 (ip), vehicle: saline 107 % of control | dose: 200.0 mg/kg/injection, schedule: Q01DX001 (ip), vehicle: saline 105 % of control and 111 % of control | dose: 200.0 mg/kg/injection, schedule: Q01DX008 (ip), vehicle: saline 115 % of control | dose: 200.0 mg/kg/injection, schedule: Q04DX003 (ip), vehicle: saline 107 % of control | dose: 400.0 mg/kg/injection, schedule: Q01DX001 (ip), vehicle: saline 115 % of control | dose: 400.0 mg/kg/injection, schedule: Q04DX003 (ip), vehicle: saline 110 % of control

c1ccc(-c2nn(-c3ccccc3)[n+](-c3ccccc3-c3ccccc3)n2)cc1
inactive: dose: 4.0 mg/kg/injection, schedule: Q01DX015 (ip), vehicle: carboxymethylcellulose (CMC) 98 % of control | dose: 8.0 mg/kg/injection, schedule: Q01DX015 (ip), vehicle: carboxymethylcellulose (CMC) 93 % of control | dose: 16.0 mg/kg/injection, schedule: Q01DX015 (ip), vehicle: carboxymethylcellulose (CMC) 94 % of control

CCC(CC)NNC(CC)CC
inactive: dose: 75.0 mg/kg/injection, schedule: Q01DX001 (ip), vehicle: other 105 % of control | dose: 75.0 mg/kg/injection, schedule: Q01DX001 (ip), vehicle: saline 98 % of control | dose: 150.0 mg/kg/injection, schedule: Q01DX001 (ip), vehicle: other 98 % of control | dose: 150.0 mg/kg/injection, schedule: Q01DX001 (ip), vehicle: saline 96 % of control | dose: 300.0 mg/kg/injection, schedule: Q01DX001 (ip), vehicle: other 118 % of control

Clc1cccc(C[P+](c2ccccc2)(c2ccccc2)c2ccccc2)c1
inactive: dose: 1.5 mg/kg/injection, schedule: Q01DX009 (ip), vehicle: Klucel (hydroxypropylcellulose) (HPC) 91 % of control | dose: 3.0 mg/kg/injection, schedule: Q01DX009 (ip), vehicle: Klucel (hydroxypropylcellulose) (HPC) 94 % of control | dose: 6.0 mg/kg/injection, schedule: Q01DX009 (ip), vehicle: Klucel (hydroxypropylcellulose) (HPC) 88 % of control | dose: 12.5 mg/kg/injection, schedule: Q04DX003 (ip), vehicle: Klucel (hydroxypropylcellulose) (HPC) 98 % of control | dose: 25.0 mg/kg/injection, schedule: Q04DX003 (ip), vehicle: Klucel (hydroxypropylcellulose) (HPC) 98 % of control

COc1ccc(N=C(N)NC#N)cc1
inactive: [1] 100 % of control | [4] 93 % of control | [2] 97 % of control | [5] 92 % of control | [6] 97 % of control

CSc1ccc(NC(=O)Nc2cc(C)c(C)cc2C)cc1
inactive: dose: 100.0 mg/kg/injection, schedule: Q01DX009 (ip), vehicle: other 86 % of control | dose: 200.0 mg/kg/injection, schedule: Q01DX009 (ip), vehicle: other 93 % of control and 90 % of control | dose: 400.0 mg/kg/injection, schedule: Q01DX009 (ip), vehicle: other 93 % of control and 106 % of control

[N-]=[N+]=NC(c1ccccc1)(c1ccccc1)c1ccccc1
inactive: dose: 100.0 mg/kg/injection, schedule: Q04DX002 (ip), vehicle: saline with Tween-80 97 % of control | [7] 97 % of control | [8] 97 % of control

C[C@]12CC[C@H](O)C[C@@]1(O)CC[C@@H]1[C@@H]2CC[C@]2(C)[C@@H](c3ccc(=O)oc3)CC[C@]12O
inactive: dose: 1.25 mg/kg/injection, schedule: Q01DX009 (ip), vehicle: Klucel (hydroxypropylcellulose) (HPC) 107 % of control | dose: 2.5 mg/kg/injection, schedule: Q01DX009 (ip), vehicle: Klucel (hydroxypropylcellulose) (HPC) 91 % of control | dose: 5.0 mg/kg/injection, schedule: Q01DX009 (ip), vehicle: Klucel (hydroxypropylcellulose) (HPC) 96 % of control | dose: 10.0 mg/kg/injection, schedule: Q01DX009 (ip), vehicle: Klucel (hydroxypropylcellulose) (HPC) 102 % of control | dose: 20.0 mg/kg/injection, schedule: Q01DX009 (ip), vehicle: Klucel (hydroxypropylcellulose) (HPC) 98 % of control | dose: 25.0 mg/kg/injection, schedule: Q01DX009 (ip), vehicle: carboxymethylcellulose (CMC) 106 % of control | dose: 50.0 mg/kg/injection, schedule: Q01DX001 (ip), vehicle: carboxymethylcellulose (CMC) 104 % of control | dose: 50.0 mg/kg/injection, schedule: Q01DX009 (ip), vehicle: carboxymethylcellulose (CMC) 92 % of control | [9] 109 % of control

COC(=O)C(C(=O)OC)c1c(N)n(C)c(=O)n(C)c1=O
inactive: dose: 100.0 mg/kg/injection, schedule: Q01DX001 (ip), vehicle: Klucel (hydroxypropylcellulose) (HPC) 93 % of control | dose: 200.0 mg/kg/injection, schedule: Q01DX001 (ip), vehicle: Klucel (hydroxypropylcellulose) (HPC) 100 % of control | dose: 400.0 mg/kg/injection, schedule: Q01DX001 (ip), vehicle: Klucel (hydroxypropylcellulose) (HPC) 100 % of control

COc1ccc(/C=C2\C(=O)OC(=O)\C2=C\c2ccc(OC)c(OC)c2)cc1OC
inactive: [1] 100 % of control | [4] 102 % of control | [2] 97 % of control | [5] 102 % of control | [6] 96 % of control

O=c1ccsc2ccccc12
inactive: dose: 25.0 mg/kg/injection, schedule: Q01DX001 (ip), vehicle: saline with Tween-80 103 % of control | dose: 50.0 mg/kg/injection, schedule: Q01DX001 (ip), vehicle: saline with Tween-80 97 % of control | dose: 100.0 mg/kg/injection, schedule: Q01DX001 (ip), vehicle: saline with Tween-80 105 % of control and 92 % of control

NC(=O)c1ccccn1
inactive: dose: 50.0 mg/kg/injection, schedule: Q01DX009 (ip), vehicle: Klucel (hydroxypropylcellulose) (HPC) 98 % of control | dose: 50.0 mg/kg/injection, schedule: Q04DX003 (ip), vehicle: Klucel (hydroxypropylcellulose) (HPC) 100 % of control | [1] 95 % of control | [4] 102 % of control | [2] 87 % of control | [5] 101 % of control and 102 % of control

O=C1OC2(CCCCC2)c2ccccc21
inactive: [4] 105 % of control | [5] 95 % of control | [6] 105 % of control

Clc1ccc(CNc2ccc(Cl)c(Cl)c2)cc1
inactive: [7] 92 % of control | [8] 89 % of control

Cc1ccc(Nc2ccc(C)cc2[N+](=O)[O-])cc1
inactive: [9] 105 % of control | dose: 200.0 mg/kg/injection, schedule: Q01DX001 (ip), vehicle: carboxymethylcellulose (CMC) 102 % of control | dose: 400.0 mg/kg/injection, schedule: Q01DX001 (ip), vehicle: carboxymethylcellulose (CMC) 94 % of control

— PubChem BioAssay AID248 (DTP/NCI, 2004)
